According to ChEMBL document CHEMBL4806967, “Heterocyclic kinase inhibitors and uses thereof” (2020):
The source made the active and inactive calls. The rule behind the calls is not given here.

Tests used:
[1] = molecular target: hERG (KCNH2) (Homo sapiens, UniProt Q12809); test: Inhibition of human ERG expressed in HEK cells at 10 uM by automated electrophysiology assay; format: cell-based; settings: HEK cells that express human ERG
[2] = Free drug concentration in mouse at 30 mg/kg, po measured after 2 hrs; format: ADME, organism-based; settings: in vivo
[3] = tested on: K562; test: Anticancer activity against human K562 cells xenografted in SCID mouse assessed as increase in survival at 10 to 30 mg/kg, iv once daily for 5 days; format: functional, organism-based; settings: dose 10-30 mg/kg, time 5.0 day
[4] = Toxicity in C57BI/6N mouse implanted subcutaneously with MC38 cells assessed as body weight loss at 30 to 100 mg/kg, po once daily for 3 weeks; format: organism-based, MC-38; settings: in vivo, dose 30-100 mg/kg
[5] = AUCextrap in CD-1 mouse at 1 mg/kg, iv; format: ADME, organism-based; settings: in vivo
[6] = AUCextrap in CD-1 mouse at 30 mg/kg, po; format: ADME, organism-based; settings: in vivo
[7] = Free drug concentration in mouse at 30 mg/kg, po measured after 7 hrs; format: ADME, organism-based; settings: in vivo
[8] = Free drug concentration in mouse at 30 mg/kg, po measured after 24 hrs; format: ADME, organism-based; settings: in vivo
[9] = Toxicity in C57BL/6 mouse assessed as signs of intolerance by measuring change in posture upto 100 mg/kg, gavage twice daily measured after 7 days; format: organism-based; settings: in vivo, po, 168 h, time 7 day
[10] = Toxicity in C57BL/6 mouse assessed as signs of intolerance by measuring change in vocalization upto 100 mg/kg, gavage twice daily measured after 7 days; format: organism-based; settings: in vivo, po, 168 h, time 7 day
[11] = Toxicity in C57BL/6 mouse assessed as signs of intolerance by measuring ease of handling upto 100 mg/kg, gavage twice daily measured after 7 days; format: organism-based; settings: in vivo, po, 168 h, time 7 day
[12] = Toxicity in C57BL/6 mouse assessed as signs of intolerance by measuring change in lacrimation upto 100 mg/kg, gavage twice daily measured after 7 days; format: organism-based; settings: in vivo, po, 168 h, time 7 day
[13] = Toxicity in C57BL/6 mouse assessed as signs of intolerance by measuring chromo-dacryorrhea upto 100 mg/kg, gavage twice daily measured after 7 days; format: organism-based; settings: in vivo, po, 168 h, time 7 day
[14] = Toxicity in C57BL/6 mouse assessed as signs of intolerance by measuring change in salivation upto 100 mg/kg, gavage twice daily measured after 7 days; format: organism-based; settings: in vivo, po, 168 h, time 7 day
[15] = Toxicity in C57BL/6 mouse assessed as signs of intolerance by measuring change in intact fur/coat upto 100 mg/kg, gavage twice daily measured after 7 days; format: organism-based; settings: in vivo, po, 168 h, time 7 day
[16] = Toxicity in C57BL/6 mouse assessed as signs of intolerance by measuring change in arousal upto 100 mg/kg, gavage twice daily measured after 7 days; format: organism-based; settings: in vivo, po, 168 h, time 7 day
[17] = Toxicity in C57BL/6 mouse assessed as signs of intolerance by measuring change in piloerection upto 100 mg/kg, gavage twice daily measured after 7 days; format: organism-based; settings: in vivo, po, 168 h, time 7 day
[18] = Toxicity in C57BL/6 mouse assessed as signs of intolerance by measuring change in normal motor movements upto 100 mg/kg, gavage twice daily measured after 7 days; format: organism-based; settings: in vivo, po, 168 h, time 7 day
[19] = Toxicity in C57BL/6 mouse assessed as signs of intolerance by measuring tail pinch upto 100 mg/kg, gavage twice daily measured after 7 days; format: organism-based; settings: in vivo, po, 168 h, time 7 day
[20] = Toxicity in C57BL/6 mouse assessed as signs of intolerance by measuring diarrhoea upto 100 mg/kg, gavage twice daily measured after 7 days; format: organism-based; settings: in vivo, po, 168 h, time 7 day
[21] = Toxicity in C57BL/6 mouse assessed as maximum tolerated dose administered through gavage twice daily measured after 7 days; settings: in vivo, po, time 7 day
[22] = tested on: MC-38; test: Anticancer activity against mouse MC38 cells subcutaneously implanted in C57BI/6N mouse assessed as tumour growth inhibition at 100 mg/kg, po once daily for 3 weeks; format: functional; settings: read-out: TGI
[23] = Free drug concentration in mouse at 30 mg/kg, po measured after 6 hrs; format: ADME, organism-based; settings: in vivo
[24] = Metabolic stability in mouse liver microsomes assessed as intrinsic clearance; format: ADME, Microsome

Chain of hERG (KCNH2) (Q12809 whole entry): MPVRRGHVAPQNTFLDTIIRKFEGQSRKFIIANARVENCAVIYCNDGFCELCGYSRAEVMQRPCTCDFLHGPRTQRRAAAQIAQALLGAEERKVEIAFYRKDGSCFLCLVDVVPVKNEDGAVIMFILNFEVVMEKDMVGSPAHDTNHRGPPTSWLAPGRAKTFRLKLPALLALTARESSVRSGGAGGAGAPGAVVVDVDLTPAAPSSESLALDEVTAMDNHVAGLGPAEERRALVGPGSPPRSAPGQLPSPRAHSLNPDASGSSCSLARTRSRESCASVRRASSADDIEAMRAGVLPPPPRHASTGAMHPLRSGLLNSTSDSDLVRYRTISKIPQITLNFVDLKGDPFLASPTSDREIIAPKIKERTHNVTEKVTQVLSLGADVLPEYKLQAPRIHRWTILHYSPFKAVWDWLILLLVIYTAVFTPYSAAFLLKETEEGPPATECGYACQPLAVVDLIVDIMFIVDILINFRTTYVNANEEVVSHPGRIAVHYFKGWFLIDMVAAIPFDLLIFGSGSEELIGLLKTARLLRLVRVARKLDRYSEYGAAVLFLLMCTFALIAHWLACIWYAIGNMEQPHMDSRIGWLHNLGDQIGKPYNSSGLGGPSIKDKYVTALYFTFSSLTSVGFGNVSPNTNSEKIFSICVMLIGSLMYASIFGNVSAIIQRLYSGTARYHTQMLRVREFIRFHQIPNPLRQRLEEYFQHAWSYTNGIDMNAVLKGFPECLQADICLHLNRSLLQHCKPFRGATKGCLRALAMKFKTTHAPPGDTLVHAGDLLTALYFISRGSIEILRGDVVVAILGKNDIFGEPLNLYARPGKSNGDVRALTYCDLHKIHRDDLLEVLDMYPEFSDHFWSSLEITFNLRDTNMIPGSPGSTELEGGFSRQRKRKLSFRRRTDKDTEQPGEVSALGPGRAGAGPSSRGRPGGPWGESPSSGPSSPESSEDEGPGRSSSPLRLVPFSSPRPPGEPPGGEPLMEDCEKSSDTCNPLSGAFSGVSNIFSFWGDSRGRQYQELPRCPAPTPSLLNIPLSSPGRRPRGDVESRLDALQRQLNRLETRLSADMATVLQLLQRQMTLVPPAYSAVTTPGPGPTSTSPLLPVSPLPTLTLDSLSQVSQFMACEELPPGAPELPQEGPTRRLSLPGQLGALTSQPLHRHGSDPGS

In the case of `Cc1nc(Nc2ncc(C(=O)Nc3c(C)cccc3Cl)s2)cc(N2CCN(CCO)CC2)n1.O` [DASATINIB], the inhibition at 10 µM [1] is reported as 36%, the “Drug uptake(free)” value [2] is reported as 30 nM and the Activity [3] is reported as “Active”. For the same compound, the Activity [4] was “Non-Toxic”.
For `Cc1nc(Nc2ncc(C(=O)Nc3c(C)csc3Cl)s2)cc(N2CCN(CCO)CC2)n1`, the “%AUCextra” value [5] was 5.81%, the “%AUCextra” value [6] was 5.81% and the “Drug uptake(free)” value [2] was 32 nM. The “Drug uptake(free)” value [7] was 3 nM, the “Drug uptake(free)” value [8] was 0.1 nM and the Activity [9] was “Non-Toxic”. For the same compound, the Activity [10] was “Non-Toxic”, the Activity [11] was “Non-Toxic” and the Activity [12] was “Non-Toxic”. The Activity [13] was “Non-Toxic”, the Activity [14] was “Non-Toxic” and the Activity [15] was “Non-Toxic”. For the same compound, the Activity [16] was “Non-Toxic”, the Activity [17] was “Non-Toxic” and the Activity [18] was “Non-Toxic”. The Activity [19] was “Non-Toxic”, the Activity [20] was “Non-Toxic” and the MTD at 168 h [21] was ≤ 100 mg/kg. For the same compound, the inhibition in vivo at 100 mg/kg [22] was 38% and the Activity [4] was “Non-Toxic”.
For `Cc1nc(Nc2ncc(C(=O)Nc3c(C)csc3Cl)s2)cc(N2CCN(C)CC2)n1`, the “Drug uptake(free)” value [2] was 44 nM and the “Drug uptake(free)” value [23] was 8 nM.
In the case of `Cc1nc(Nc2ncc(C(=O)Nc3c(Cl)csc3C)s2)cc(N2CCN(CCO)CC2)n1`, the “Drug uptake(free)” value [2] is reported as 80 nM and the “Drug uptake(free)” value [23] is reported as 4 nM.
`Cc1nc(Nc2ncc(C(=O)Nc3ncccc3C)s2)cc(N2CCN(CCO)CC2)n1` showed a CLint [24] of 38 µL/min/mg.
With `Cc1nc(Nc2ncc(C(=O)Nc3c(Cl)csc3Cl)s2)cc(N2CCN(CCO)CC2)n1` the “Drug uptake(free)” value [2] was 43 nM and the “Drug uptake(free)” value [23] was 5 nM.
